Laboratory results reported in ChEMBL document CHEMBL4665626, “Excellent antitumor and antimetastatic activities based on novel coumarin/pyrazole oxime hybrids” (Eur J Med Chem, 2019).
Counter-ions that a name gives are not always drawn. Calls of active or inactive are those of the source. The calls are words filed in the database; no cut-off is given here.

How the values were obtained:
[1] = Antiproliferative activity against human NCI-H1299 cells assessed as reduction in cell viability incubated for 72 hrs by MTT assay; type: functional, cell-based; settings: NCI-H1299, 72 h
[2] = test system: U-87 MG; experiment: Antiproliferative activity against human U87 cells assessed as reduction in cell viability incubated for 72 hrs by MTT assay; type: functional, cell-based, U-87MG ATCC
[3] = test system: HepG2; experiment: Antiproliferative activity against human HepG2 cells assessed as reduction in cell viability incubated for 72 hrs by MTT assay; type: functional, cell-based; settings: HepG2, 72 h
[4] = test system: SMMC-7721; experiment: Antiproliferative activity against human SMMC-7721 cells assessed as reduction in cell viability incubated for 72 hrs by MTT assay; type: functional, cell-based; settings: SMMC-7721, 72 h
[5] = test system: SMMC-7721; experiment: Inhibition of TGF-beta1-induced cell migration in human SMMC-7721 cells at 0.5 uM incubated for 24 hrs by wound healing assay relative to control; type: functional
[6] = test system: SMMC-7721; experiment: Inhibition of epithelial-mesenchymal transition in human SMMC-7721 cells assessed as increase in TGF-beta1 reduced E-cadherin expression at 0.5 uM incubated for 48 hrs by Western blot analysis; type: functional, cell-based
[7] = test system: SMMC-7721; experiment: Inhibition of epithelial-mesenchymal transition in human SMMC-7721 cells assessed as decrease in TGF-beta1-induced vimentin expression at 0.5 uM incubated for 48 hrs by Western blot analysis; type: functional, cell-based
[8] = test system: SMMC-7721; experiment: Inhibition of epithelial-mesenchymal transition in human SMMC-7721 cells assessed as decrease in TGF-beta1-induced MMP9 expression at 0.5 uM incubated for 48 hrs by Western blot analysis; type: functional, cell-based
[9] = test system: SMMC-7721; experiment: Inhibition of TGF-beta1-induced cell invasion in human SMMC-7721 cells at 0.5 uM incubated for 2 days by crystal violet staining based matrigel transwell migration assay; type: functional; settings: time 2.0 day
[10] = test system: SMMC-7721; experiment: Inhibition of epithelial-mesenchymal transition in human SMMC-7721 cells assessed as increase in TGF-beta1 reduced E-cadherin expression at 0.5 uM incubated for 48 hrs by Immunofluorescence staining based laser-scanning confocal microscope; type: functional, cell-based
[11] = test system: SMMC-7721; experiment: Inhibition of epithelial-mesenchymal transition in human SMMC-7721 cells assessed as decrease in TGF-beta1-induced vimentin expression at 0.5 uM incubated for 48 hrs by immunofluorescence staining based laser-scanning confocal microscope; type: functional, cell-based
[12] = test system: SMMC-7721; experiment: Inhibition of epithelial-mesenchymal transition in human SMMC-7721 cells assessed as decrease in TGF-beta1-induced MMP9 expression at 0.5 uM incubated for 48 hrs by immunofluorescence staining based laser-scanning confocal microscope; type: functional, cell-based

Structure (SMILES)	IC50 [1]	IC50 [2]	IC50 [3]	IC50 [4]	inhibition [5]	inhibition [6]	inhibition [7]	inhibition [8]	inhibition [9]	inhibition [10]	inhibition [11]	inhibition [12]
Cc1nn(C)c(Oc2cccc(C(F)(F)F)c2)c1/C=N\OCCCCCCOc1cc2oc(=O)cc(C)c2cc1Cl	> 25 µM	23.4 µM	> 25 µM	24.8 µM								
Cc1nn(C)c(Oc2ccc(OC(F)(F)F)cc2)c1/C=N\OCCCCCCOc1cc2oc(=O)cc(C)c2cc1Cl	11.9 µM	9.62 µM	8.16 µM	6.35 µM								
COc1cccc2c1C(=O)c1c(O)c3c(c(O)c1C2=O)C[C@@](O)(C(=O)CO)C[C@@H]3O[C@H]1C[C@H](N)[C@H](O)[C@H](C)O1 [DOXORUBICIN HYDROCHLORIDE]		4.28 µM	2.32 µM		Active	Active	Active	Active	Active	Active	Active	Active
O=c1[nH]cc(F)c(=O)[nH]1 [FLUOROURACIL]	41.8 µM	45.3 µM	31.7 µM									
